Data taken from US10195166B2, “Methods for treating hepatitis C virus infectious disease” (priority 2013, dated 2019).
No end group written: not given here.

Assays:
Assay type in all cases: cell-based, hepatitis C virus
[1] = tested on: Huh7 cells infected with HCVcc; assay: HCV RNA level after direct treatment with cell permeable GRIM19 domain peptides; details: 10 μM peptide for 48 hours (FIG. 12)
Experimental: In order to confirm whether an anti-HCV effect is shown when penetrating each domain itself of GRIM19 protein into cells, the effect was evaluated in in vitro HCV infection model by synthesizing peptides in which cell permeable peptide sequences (CP) bind to N-terminal of each domain of GRIM19 of Example 8. The sequences of each domain of GRIM19 comprising the synthesized cell permeable peptide sequences (CP) were analyzed in Table 4 below.
After treating Huh7 cells infected with HCVcc through in vitro HCV infection model of Example 2 with 10 μM of CP-GRIM19-D1, CP-GRIM19-D2, and CP-GRIM19-D3 for 48 hours, the level of RNA in HCV was examined.

[2] = tested on: HCVcc infected Huh7 cells; assay: HCV RNA copies, GRIM19 overexpression and/or sofosbuvir in in vitro HCV infection model; details: transfection with pcDNA3_GRIM19 plus sofosbuvir (FIG. 10)
Experimental: HCVcc infected Huh7 cells were transfected with pcDNA3_GRIM19 using FUGENE HD, as in Example 3 above, the cells were treated with sofosbuvir (PharmaBLOCK R&D Co. Ltd.) (Formula 2):
[drawing 6] a compound inhibiting RNA-dependent RNA polymerase activity of HCV, or the cells were transfected with pcDNA3_GRIM19 and treated with sofosbuvir. Then, a change in HCV RNA copies was evaluated.

[3] = tested on: in vitro HCV infection model (HCVcc infected Huh7 cells); assay: HCV RNA level after transfection with expression vectors for GRIM19 domains in in vitro HCV infection model; details: overexpression of the domain by transfection with expression vector (FIG. 11b)
Experimental: An expression vector which can express the […], GRIM19-D2 (aa 37-72), GRIM19-D3 (aa 73-101), and GRIM19-D4 (aa 102-144) above was prepared, and the effect of each domain was evaluated in in vitro HCV infection model in Example 2.
In order to prepare the expression vector, the gene for each domain of GRIM19 was obtained through PCR with template of the vector expressing pcDNA3_GRIM19, and each domain was subcloned into pCMV-3Tag-3A vector (Agilent Technologies, Inc.) using restriction sites of restriction enzymes EcoRI and SalI. For GRIM19-D2, GRIM19-D3, and GRIM19-D4 to be expressed in the vector, a start codon was added prior to 5′ of the actually corresponding gene sequence of GRIM19. Accordingly, for each protein fragment, methionine was added prior to the N terminus of the actually corresponding amino acid sequence of GRIM19.

[4] = tested on: HCVcc infected Huh7 cells; assay: HCV replication, GRIM19 overexpression combined with DGAT-1 inhibitor; details: 40 μM compound of Formula 1 simultaneously with GRIM19 overexpression in HCVcc infected Huh7 cells (FIG. 9)
HCV = HCV RNA copies, GRIM19 overexpression combined with metformin; details: transfection with pcDNA3_GRIM19 plus metformin (FIG. 8)
Text: In this regard, a change in HCV RNA copies was examined in the case of administration of metformin (Sigama Aldrich, Cat. D150959), an activator of AMP-activated protein kinase (AMPK) inhibiting the activity of ACC, in combination.

Row | Molecule | level of HCV RNA [1] | level of HCV RNA [3] | also measured
1 | CP-GRIM19-D1: synthesized peptide, cell permeable peptide sequence (CP) at N-terminal of GRIM19 domain 1, SEQ ID NO: 14 (RRRRRRRRRMAASKVKQDMPPPGGYGPIDYKRNLPRRGLSGYSML; CP-GRIM19-D1) | significantly decreased |  | 
2 | CC(C)OC(=O)[C@H](C)N[P@](=O)(OC[C@H]1O[C@@H](n2ccc(=O)[nH]c2=O)[C@](C)(F)[C@@H]1O)Oc1ccccc1 [sofosbuvir] |  |  | effect of the combination on HCV [2]: synergistic effect of inhibiting HCV; lower increase in HCV RNA than treatment with sofosbuvir alone [2]: ≥ 45%
3 | CP-GRIM19-D3: synthesized peptide, cell permeable peptide sequence (CP) at N-terminal of GRIM19 domain 3, SEQ ID NO: 16 (RRRRRRRRRPLLQAETDRRTLQMLRENLEEEAIIMKDV; CP-GRIM19-D3) | significantly decreased |  | 
4 | GRIM19-D3: GRIM19 protein fragment aa 73-101 (SEQ ID NO: 10), expressed from pCMV-3Tag-3A vector (MPLLQAETDRRTLQMLRENLEEEAIIMKDV; also: 3Tag vector tags, position not given here) |  | significantly decreased | 
5 | O=C(Nc1ccccc1)Nc1ccc(-c2ccc(C(=O)[C@@H]3CCC[C@H]3C(=O)O)cc2)cc1 [A922500] |  |  | effect of the combination on HCV replication [4]: synergistic effect of inhibiting HCV replication
6 | CP-GRIM19-D2: synthesized peptide, cell permeable peptide sequence (CP) at N-terminal of GRIM19 domain 2, SEQ ID NO: 15 (RRRRRRRRRAIGIGTLIYGHWSIMKWNRERRRLQIEDFEARIALL; CP-GRIM19-D2) | significantly decreased |  | 
7 | CN(C)C(=N)N=C(N)N [metformin] |  |  | effect of the combination on HCV (HCV): synergistic effect of inhibiting HCV; increase in HCV RNA compared with treatment with metformin alone (HCV): considerably lower
8 | GRIM19-D2: GRIM19 protein fragment aa 37-72 (SEQ ID NO: 8), expressed from pCMV-3Tag-3A vector (MAIGIGTLIYGHWSIMKWNRERRRLQIEDFEARIALL; also: 3Tag vector tags, position not given here) |  | significantly decreased | 
9 | GRIM19-D4: GRIM19 protein fragment aa 102-144 (SEQ ID NO: 12), expressed from pCMV-3Tag-3A vector (MDWKVGESVFHTTRWVPPLIGELYGLRTTEEALHASHGFMWYT; also: 3Tag vector tags (pCMV-3Tag-3A)) |  | significantly decreased | 
10 | GRIM19-D1: GRIM19 protein fragment aa 1-36 (SEQ ID NO: 6), expressed from pCMV-3Tag-3A vector (MAASKVKQDMPPPGGYGPIDYKRNLPRRGLSGYSML; also: 3Tag vector tags (pCMV-3Tag-3A)) |  | significantly decreased | 
